Data: patent US10562908B2, “Ortho substituted phenylpyrazolo- and phenylpyrrolo-pyridazine derivatives having multimodal activity against pain” (priority 2016, dated 2020)
Like-named read-outs stand apart in the source and are kept apart here.

How the values were obtained:
human μ-opioid receptor = molecular target: T1, human μ-opioid receptor (Homo sapiens, UniProt P35372); experiment: Human μ-opioid receptor radioligand assay ([3H]-DAMGO); assay type: binding
T1 construct: expressed in transfected cells; host or cells: CHO-K1
T1 sequence (P35372 whole entry): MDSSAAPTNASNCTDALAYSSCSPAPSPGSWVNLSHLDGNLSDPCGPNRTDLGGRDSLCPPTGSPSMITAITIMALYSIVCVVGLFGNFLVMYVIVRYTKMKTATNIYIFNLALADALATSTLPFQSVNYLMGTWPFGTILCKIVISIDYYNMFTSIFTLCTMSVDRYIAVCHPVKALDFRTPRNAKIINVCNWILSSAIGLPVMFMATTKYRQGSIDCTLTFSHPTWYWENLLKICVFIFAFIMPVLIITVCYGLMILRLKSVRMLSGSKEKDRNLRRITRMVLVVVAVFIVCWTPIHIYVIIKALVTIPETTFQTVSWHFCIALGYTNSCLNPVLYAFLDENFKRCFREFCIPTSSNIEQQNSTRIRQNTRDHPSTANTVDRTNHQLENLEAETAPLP
Procedure: Human μ-Opioid Receptor Radioligand Assay
To investigate binding properties of test compounds to human μ-opioid receptor, transfected CHO-K1 cell membranes and [^3H]-DAMGO (Perkin Elmer, ES-542-C), as the radioligand, were used. The assay was carried out with 20 μg of membrane suspension, 1 nM of [^3H]-DAMGO in either absence or presence of either buffer or 10 μM Naloxone for total and non-specific binding, respectively. Binding buffer contained Tris-HCl 50 mM, MgCl2 5 mM at pH 7.4. Plates were incubated at 27° C. for 60 minutes. After the incubation period, the reaction mix was then transferred to MultiScreen HTS, FC plates (Millipore), filtered and plates were washed 3 times with ice-cold 10 mM Tris-HCL (pH 7.4). Filters were dried and counted at approximately 40% efficiency in a MicroBeta scintillation counter (Perkin-Elmer) using EcoScint liquid scintillation cocktail, preferably, transfected CHO-K1 cell membranes (20 μg) were incubated with 1 nM of [^3H]-DAMGO in assay buffer containing Tris-HCl 50 mM, MgCl2 5 mM at pH 7.4. NBS (non-specific binding) was measured by adding 10 μM Naloxone. The binding of the test compound was measured at five different concentrations. Plates were incubated at 27° C. for 60 minutes. After the incubation period, the reaction mix was then transferred to MultiScreen HTS, FC plates (Millipore), filtered and plates were washed 3 times with ice-cold 10 mM Tris-HCL (pH 7.4). Filters were dried and counted at approximately 40% efficiency in a MicroBeta scintillation counter (Perkin-Elmer) using EcoScint liquid scintillation cocktail.

[1] = molecular target: Human α2δ-1 subunit of Cav2.2 calcium channel (Homo sapiens, UniProt P54289); experiment: Human α2δ-1 subunit of Cav2.2 calcium channel assay ([3H]-Gabapentin); assay type: binding
Chain of Human α2δ-1 subunit of Cav2.2 calcium channel (P54289 25-1103): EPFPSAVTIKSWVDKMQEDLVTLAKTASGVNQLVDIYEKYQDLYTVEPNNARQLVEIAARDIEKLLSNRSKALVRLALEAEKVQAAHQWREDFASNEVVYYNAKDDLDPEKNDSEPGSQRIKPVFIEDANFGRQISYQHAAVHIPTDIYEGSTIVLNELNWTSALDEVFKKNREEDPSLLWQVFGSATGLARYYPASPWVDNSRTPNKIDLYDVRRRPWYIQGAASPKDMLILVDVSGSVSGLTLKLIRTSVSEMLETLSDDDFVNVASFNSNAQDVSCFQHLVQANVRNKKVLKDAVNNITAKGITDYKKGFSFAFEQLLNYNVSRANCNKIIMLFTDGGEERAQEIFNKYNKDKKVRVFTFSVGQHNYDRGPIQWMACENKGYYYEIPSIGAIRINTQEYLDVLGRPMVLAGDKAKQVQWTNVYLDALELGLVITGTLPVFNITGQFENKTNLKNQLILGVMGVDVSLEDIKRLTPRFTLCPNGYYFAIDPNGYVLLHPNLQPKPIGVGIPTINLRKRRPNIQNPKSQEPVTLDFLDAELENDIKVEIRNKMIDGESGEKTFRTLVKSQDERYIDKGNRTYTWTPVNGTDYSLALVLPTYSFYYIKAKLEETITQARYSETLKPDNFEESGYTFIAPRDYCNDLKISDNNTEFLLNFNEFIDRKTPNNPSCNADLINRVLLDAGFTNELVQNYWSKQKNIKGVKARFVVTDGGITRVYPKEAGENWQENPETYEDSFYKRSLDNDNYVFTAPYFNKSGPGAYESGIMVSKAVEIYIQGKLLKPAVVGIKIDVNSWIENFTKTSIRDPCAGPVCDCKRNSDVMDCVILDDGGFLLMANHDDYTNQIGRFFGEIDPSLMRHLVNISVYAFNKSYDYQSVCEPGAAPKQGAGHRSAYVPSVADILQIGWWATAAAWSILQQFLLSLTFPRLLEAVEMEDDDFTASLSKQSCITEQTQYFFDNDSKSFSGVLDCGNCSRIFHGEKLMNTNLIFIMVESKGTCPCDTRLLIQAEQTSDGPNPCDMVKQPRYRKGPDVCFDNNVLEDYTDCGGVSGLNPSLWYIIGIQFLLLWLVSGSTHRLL
Procedure: Human α2δ-1 Subunit of Cav2.2 Calcium Channel Assay
Human α2δ-1 enriched membranes (2.5 μg) were incubated with 15 nM of radiolabeled [3H]-Gabapentin in assay buffer containing Hepes-KOH 10 mM, pH 7.4. NSB (non specific binding) was measured by adding 10 μM pregabalin. After 60 min incubation at 27° C., binding reaction was terminated by filtering through Multiscreen GF/C (Millipore) presoaked in 0.5% polyethyleneimine in Vacuum Manifold Station, followed by 3 washes with ice-cold filtration buffer containing 50 mM Tris-HCl, pH 7.4. Filter plates were dried at 60° C. for 1 hour and 30 μl of scintillation cocktail were added to each well before radioactivity reading. Readings were performed in a Trilux 1450 Microbeta radioactive counter (Perkin Elmer), i.e. Human α2δ-1 enriched membranes (2.5 μg) were incubated with 15 nM of radiolabeled [3H]-Gabapentin in assay buffer containing Hepes-KOH 10 mM, pH 7.4. NSB (non specific binding) was measured by adding 10 μM pregabalin. The binding of the test compound was measured at five different concentrations. After 60 min incubation at 27° C., binding reaction was terminated by filtering through Multiscreen GF/C (Millipore) presoaked in 0.5% polyethyleneimine in Vacuum Manifold Station, followed by 3 washes with ice-cold filtration buffer containing 50 mM Tris-HCl, pH 7.4. Filter plates were dried at 60° C. for 1 hour and 30 μl of scintillation cocktail were added to each well before radioactivity reading. Readings were performed in a Trilux 1450 Microbeta radioactive counter (Perkin Elmer).

[2] = transfected CHO-K1 cell membranes, 1 nM [3H]-DAMGO, read-out: Binding μ (Ki)
[3] = human α2δ-1 enriched membranes, 15 nM [3H]-Gabapentin, read-out: Binding α2δ-1 (Ki)

Row | SMILES | Ki (human μ-opioid receptor) [nM] | Ki [1] [nM] | Ki (human μ-opioid receptor; [2]) [nM] | Ki [1, 3] [nM]
1 | CCNCCC(Oc1ccccc1-n1nc2c(N(C)C)nnc(C)c2c1C)c1ccccc1 (stereo not shown) [Example 1, 2-(2-(3-(Ethylamino)-1-phenylpropoxy)phenyl)-N,N,3,4-tetramethyl-2H-pyrazolo[3,4-d]pyridazin-7-amine] | 100 to 500 | 500 to 5000 | – | –
2 | Cc1nnc(N(C)C)c2nn(-c3ccccc3OCCN3CCCC3)c(C)c12 [Example 2, N,N,3,4-tetramethyl-2-(2-(2-(pyrrolidin-1-yl)ethoxy)phenyl)-2H-pyrazolo[3,4-d]pyridazin-7-amine] | – | – | > 500 | > 5000
3 | Cc1nnc(N(C)C)c2nn(-c3ccccc3OCC3CCNCC3)c(C)c12 [Example 3, N,N,3,4-tetramethyl-2-(2-(piperidin-4-ylmethoxy)phenyl)-2H-pyrazolo[3,4-d]pyridazin-7-amine] | – | – | > 500 | > 5000
4 | CNCCCOc1ccccc1-n1nc2c(N(C)C)nnc(C)c2c1C [Example 4, N,N,3,4-tetramethyl-2-(2-(3-(methylamino)propoxy)phenyl)-2H-pyrazolo[3,4-d]pyridazin-7-amine] | – | – | > 500 | 500 to 5000
5 | Cc1nnc(N(C)C)c2nn(-c3ccccc3OCC3CCCNC3)c(C)c12 (stereo not shown) [Example 5, N,N,3,4-tetramethyl-2-(2-(piperidin-3-ylmethoxy)phenyl)-2H-pyrazolo[3,4-d]pyridazin-7-amine] | – | – | > 500 | 500 to 5000
6 | CNCCC(Oc1ccccc1-n1nc2c(N(C)C)nnc(C)c2c1C)c1ccccc1 (stereo not shown) [Example 6, N,N,3,4-tetramethyl-2-(2-(3-(methylamino)-1-phenylpropoxy)phenyl)-2H-pyrazolo[3,4-d]pyridazin-7-amine] | 100 to 500 | 500 to 5000 | – | –
7 | CNCCC(Oc1ccccc1-n1nc2c(NCc3ccccc3)nnc(C)c2c1C)c1ccccc1 (stereo not shown) [Example 7, N-benzyl-3,4-dimethyl-2-(2-(3-(methylamino)-1-phenylpropoxy)phenyl)-2H-pyrazolo[3,4-d]pyridazin-7-amine] | – | – | > 500 | 500 to 5000
8 | Cc1nnc(N(C)C)c2nn(-c3ccccc3OC3CCN(Cc4ccccc4)C3)c(C)c12 (stereo not shown) [Example 8, 2-(2-((1-benzylpyrrolidin-3-yl)oxy)phenyl)-N,N,3,4-tetramethyl-2H-pyrazolo[3,4-d]pyridazin-7-amine] | – | – | > 500 | 500 to 5000
9 | CNCCC(Oc1ccccc1-n1nc2c(Nc3ccccc3)nnc(C)c2c1C)c1ccccc1 (stereo not shown) [Example 9, 3,4-dimethyl-2-(2-(3-(methylamino)-1-phenylpropoxy)phenyl)-N-phenyl-2H-pyrazolo[3,4-d]pyridazin-7-amine] | 100 to 500 | > 5000 | – | –
10 | CNCCC(C)Oc1ccccc1-n1nc2c(N(C)C)nnc(C)c2c1C (stereo not shown) [Example 10, N,N,3,4-tetramethyl-2-(2-((4-(methylamino)butan-2-yl)oxy)phenyl)-2H-pyrazolo[3,4-d]pyridazin-7-amine] | – | – | > 500 | 500 to 5000
11 | Cc1nnc(N(C)C)c2nn(-c3ccccc3OC(c3ccccc3)C3CCNCC3)c(C)c12 (stereo not shown) [Example 11, N,N,3,4-tetramethyl-2-(2-(phenyl(piperidin-4-yl)methoxy)phenyl)-2H-pyrazolo[3,4-d]pyridazin-7-amine] | – | – | > 500 | 500 to 5000
12 | Cc1nnc(N(C)C)c2nn(-c3ccccc3OC(C)CCNCc3ccccc3)c(C)c12 (stereo not shown) [Example 12, 2-(2-((4-(benzylamino)butan-2-yl)oxy)phenyl)-N,N,3,4-tetramethyl-2H-pyrazolo[3,4-d]pyridazin-7-amine] | – | – | > 500 | 500 to 5000
13 | Cc1nnc(N(C)C)c2nn(-c3ccccc3OC3CCNCC3)c(C)c12 [Example 13, N,N,3,4-tetramethyl-2-(2-(piperidin-4-yloxy)phenyl)-2H-pyrazolo[3,4-d]pyridazin-7-amine] | – | – | > 500 | > 5000
14 | CNCCC(Oc1ccccc1-n1nc2c(N(C)C)nnc(C)c2c1C)c1cccc(C#N)c1 (stereo not shown) [Example 14, 3-(1-(2-(7-(dimethylamino)-3,4-dimethyl-2H-pyrazolo[3,4-d]pyridazin-2-yl)phenoxy)-3-(methylamino)propyl)benzonitrile] | – | – | > 500 | 500 to 5000
15 | CNCCC(Oc1ccccc1-n1nc2c(N(C)C)nnc(C)c2c1C)c1ccc(C#N)cc1 (stereo not shown) [Example 15, 4-(1-(2-(7-(dimethylamino)-3,4-dimethyl-2H-pyrazolo[3,4-d]pyridazin-2-yl)phenoxy)-3-(methylamino)propyl)benzonitrile] | – | – | > 500 | 500 to 5000
16 | CNCCC(Oc1ccccc1-n1nc2c(N(C)C)nnc(C)c2c1C)C1CCOCC1 (stereo not shown) [Example 16, N,N,3,4-tetramethyl-2-(2-(3-(methylamino)-1-(tetrahydro-2H-pyran-4-yl)propoxy)phenyl)-2H-pyrazolo[3,4-d]pyridazin-7-amine] | – | – | > 500 | > 5000
17 | Cc1nnc(N(C)C)c2nn(-c3ccccc3OCC(N)c3ccccc3)c(C)c12 (stereo not shown) [Example 17, 2-(2-(2-amino-2-phenylethoxy)phenyl)-N,N,3,4-tetramethyl-2H-pyrazolo[3,4-d]pyridazin-7-amine] | – | – | > 500 | 500 to 5000
18 | CNCCC(Oc1ccccc1-n1nc2c(N(C)C)nnc(C)c2c1C)c1ccccn1 (stereo not shown) [Example 18, N,N,3,4-tetramethyl-2-(2-(3-(methylamino)-1-(pyridin-2-yl)propoxy)phenyl)-2H-pyrazolo[3,4-d]pyridazin-7-amine] | – | – | > 500 | 500 to 5000
19 | CNCCC(Oc1ccccc1-n1nc2c(N(C)C)nnc(C)c2c1C)c1ccncc1 (stereo not shown) [Example 19, N,N,3,4-tetramethyl-2-(2-(3-(methylamino)-1-(pyridin-4-yl)propoxy)phenyl)-2H-pyrazolo[3,4-d]pyridazin-7-amine] | – | – | > 500 | 500 to 5000
20 | Cc1nnc(N(C)C)c2nn(-c3ccccc3OC(CCNCC3CC3)c3ccccc3)c(C)c12 (stereo not shown) [Example 20, 2-(2-(3-((cyclopropylmethyl)amino)-1-phenylpropoxy)phenyl)-N,N,3,4-tetramethyl-2H-pyrazolo[3,4-d]pyridazin-7-amine] | 100 to 500 | 500 to 5000 | – | –
21 | CNCCC(Oc1ccccc1-n1nc2c(N(C)C)nnc(C)c2c1C)c1cccnc1 (stereo not shown) [Example 21, N,N,3,4-tetramethyl-2-(2-(3-(methylamino)-1-(pyridin-3-yl)propoxy)phenyl)-2H-pyrazolo[3,4-d]pyridazin-7-amine] | – | – | > 500 | 500 to 5000
22 | Cc1nnc(N(C)C)c2nn(-c3ccccc3OCCC(N)c3ccccc3)c(C)c12 (stereo not shown) [Example 22, 2-(2-(3-amino-3-phenylpropoxy)phenyl)-N,N,3,4-tetramethyl-2H-pyrazolo[3,4-d]pyridazin-7-amine] | – | – | > 500 | 500 to 5000
23 | CNCCC(Oc1ccccc1-n1nc2c(N3CCOCC3)nnc(C)c2c1C)c1ccccc1 (stereo not shown) [Example 23, 3-(2-(3,4-dimethyl-7-morpholino-2H-pyrazolo[3,4-d]pyridazin-2-yl)phenoxy)-N-methyl-3-phenylpropan-1-amine] | – | – | > 500 | 500 to 5000
24 | CCCNCCC(Oc1ccccc1-n1nc2c(N(C)C)nnc(C)c2c1C)c1ccccc1 (stereo not shown) [Example 24, N,N,3,4-tetramethyl-2-(2-(1-phenyl-3-(propylamino)propoxy)phenyl)-2H-pyrazolo[3,4-d]pyridazin-7-amine] | 100 to 500 | 500 to 5000 | – | –
25 | CNCCC(Oc1cc(Br)ccc1-n1nc2c(N(C)C)nnc(C)c2c1C)c1ccccc1 (stereo not shown) [Example 25, 2-(4-bromo-2-(3-(methylamino)-1-phenylpropoxy)phenyl)-N,N,3,4-tetramethyl-2H-pyrazolo[3,4-d]pyridazin-7-amine] | – | – | > 500 | 500 to 5000
26 | COCCNCCC(Oc1ccccc1-n1nc2c(N(C)C)nnc(C)c2c1C)c1ccccc1 (stereo not shown) [Example 26, 2-(2-(3-((2-methoxyethyl)amino)-1-phenylpropoxy)phenyl)-N,N,3,4-tetramethyl-2H-pyrazolo[3,4-d]pyridazin-7-amine] | – | – | > 500 | 500 to 5000
